Source: article PMC9698716, “From Serendipity to Rational Identification of the 5,6,7,8-Tetrahydrobenzo[4,5]thieno[2,3-d]pyrimidin-4(3H)-one Core as a New Chemotype of AKT1 Inhibitors for Acute Myeloid Leukemia” (Pharmaceutics, 2022)
Read-outs that look alike come from different tables or passages of the source.

Legend:
[1] = system: AKT3; parameters: method as in PMID 33995085; conditions: ref [51]; cited from earlier work
[2] = system: AKT1; parameters: method as in PMID 33995085; conditions: ref [51]; cited from earlier work
[3] = target: T1, AKT1 (Homo sapiens, UniProt P31749); experiment: AKT1 enzymatic inhibition assay; format: biochemical; conditions: for Ligand efficiency (LE = 1.4 pIC50/N): from AKT1 IC50, N = heavy atoms; for Ki: read-out: Ki (AKT1 inhibition constant)
T1 construct: purchased Kinase Logistics, Meyn, Germany #Aps 01-101
T1 sequence (P31749 whole entry): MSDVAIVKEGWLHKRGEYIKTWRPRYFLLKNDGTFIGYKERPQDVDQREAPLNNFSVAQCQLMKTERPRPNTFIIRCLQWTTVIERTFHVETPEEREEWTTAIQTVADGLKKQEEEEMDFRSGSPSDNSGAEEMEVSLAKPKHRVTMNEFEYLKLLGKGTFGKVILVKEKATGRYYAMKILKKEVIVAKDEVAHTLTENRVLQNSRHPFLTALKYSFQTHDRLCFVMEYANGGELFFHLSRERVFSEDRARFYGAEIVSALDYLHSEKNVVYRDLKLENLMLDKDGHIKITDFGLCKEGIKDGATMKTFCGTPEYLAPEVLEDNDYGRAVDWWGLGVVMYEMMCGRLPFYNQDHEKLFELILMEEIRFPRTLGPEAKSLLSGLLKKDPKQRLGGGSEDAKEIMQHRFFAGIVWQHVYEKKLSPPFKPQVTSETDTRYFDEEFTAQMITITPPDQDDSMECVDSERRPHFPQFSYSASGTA
Description: The studied compounds, including the standard inhibitor Staurosporine (Thermo-Fisher , Madrid, Spain, Invitrogen BP2541), were incubated with 3 nM AKT1 (#Aps 01-101; Kinase Logistics, Meyn, Germany) and 1.5 μM Profiler Pro peptide 6 (#760350; Perkin Elmer, Tres Cantos, Madrid, Spain) in the presence of different concentrations of Adenosine 5′triphosphate disodium salt, ATP (#A2383; Sigma Aldrich, Madrid, Spain) in a 384-well Microplate (#781076; Greiner, San Sebastián de los Reyes, Madrid, Spain). The reaction rate was calculated from kinetic measurements carried out measured in a Caliper EzReader LabChip 3000 (Caliper, Hopkinton, MA, USA) reader with samples taken each 10 min for a total time of 60 min. The percentage of substrate conversion rate was plotted versus the ATP concentration. The data was analyzed by non-linear fitting with GraphPad Prism by employing the Michaelis–Menten equation. The buffer assay used in the inhibition hAKT1 assay is: Hepes 100 mM, DMSO 4%, Brij 0.003%, Tween 20 0.004%, MgCl2 10 mM, with a pH = 7.5.
The Ki values were calculated by employing the GraphPad Prism equations.

[4] = system: p38 MAPK; experiment: activity against p38 MAPK (originally desired target); format: biochemical
[5] = system: OCI-AML3; experiment: CellTiter Blue cell viability assay; format: cell-based, human; conditions: OCI-AML3, 48 h, read-out: cellular IC50
Source text: (§1) The human AML cell lines, OCI-AML3 (carrying the NPM1 gene mutation A and the DNMT3A^R882C mutation), IMS-M2 (carrying the NPM1 gene mutation A), OCI-AML2 (with the wild-type NPM1 and DNMT3A^R635W mutation), and SKM-1 and MOLM-13 (with the wild-type NPM1) were previously reported. The cell lines were purchased from the Deutsche Sammelung von Mikroorganismen und Zellkulturen (DSMZ) (Braunschweig, Germany) cell bank and maintained according to the vendors’ instructions. Briefly, cultured cells were split every 3 days and maintained in an exponential growth phase. The cell lines were tested for mycoplasma using the Universal Mycoplasma Detection Kit (ATCC). The OCI-AML3 were grown in α-MEM supplemented with 20% fetal bovine serum, 100 U/mL penicillin, and 100 μg/mL streptomycin (P/S), and all other cell lines were cultured in RPMI and supplemented with a 10–20% fetal bovine serum and 100 U/mL penicillin and 100 μg/mL streptomycin. The cells were kept at 37 °C in a 5% CO2 incubator. Prior to screening, the appropriate cell concentration for all cell lines was determined. For the cell lines’ treatments, cells were maintained as follows: OCI-AML3 at 0.25 × 10^6/mL, OCI-AML2 and IMS-M2 at 0.35 × 10^6/mL, and SKM-1 and MOLM-13 at 0.5 × 10^6/mL. The compounds were re-suspended at 10 mM stock in DMSO. Further dilutions were performed in phosphate-buffer-saline (PBS) for pharmacological experiments. The cells were exposed to compounds at different concentrations for the indicated time points and sampled as described below. Briefly, the cells (4 × 10^5/mL) were seeded in 384-well plate and treated for 48 h with various concentrations (0.001 μM to 100 μM) of either one of the compounds, T101, T126, and T159, or NSC348884, as a positive control. Each plate included DMSO at 0.1% as a negative control. The metabolic cell activity was measured by using the CellTiter Blue proliferation agent (Roche) as described in the manufacturer’s procedure. Briefly, CellTiter Blue solution (Resazaurin) was added to each well and the plates were incubated at 37 °C with 5% CO2 for 4 h. During the incubation time, the resazurin is reduced to fluorescent resorufin in metabolically and proliferating living cells. The fluorescence intensity was measured using the automated Tecan plate reader (Tecan Group Ltd., Männedorf, Switzerland) at an excitation/emission wavelength of 531/572 nm. The fluorescence readouts were reported as relative fluorescence units (RFU) and read on a luminescence plate reader (Infinite 200 Pro, Tecan, CA, USA). The dose response curves ([…] (IC50)) were obtained by non-linear regression analysis using the GraphPad Prism 5.0 program. The concentration is shown as a logarithmic function. All the experiments were performed at least in triplicate, with technical repetition. The results are expressed as mean ± standard error of the mean (SEM). For the Colony Forming Unit (CFU) assay, 10 × 10^6 CD34+ human hematopoietic progenitors were received from unique healthy donors, upon signed informed consent, and were cultured in SFEM II (Serum-free medium) and P/S at a density of 1 × 10^6/mL with cytokines that are important for cell division and self-renewal: fms-like tyrosine kinase 3 (FLT3)-ligand, FLT3L (100 ng/mL), Stem Cell Factor, SCF (100 ng/mL) and Trombopoietin, and TPO (50 ng/mL) for 48 h before plating them on a Methocult medium.

[6] = system: SKM-1; experiment: CellTiter Blue cell viability assay; format: cell-based, human; conditions: SKM-1, 48 h, read-out: cellular IC50
Source text: as §1

[7] = system: OCI-AML2; experiment: CellTiter Blue cell viability assay; format: cell-based, human; conditions: OCI-AML2, 48 h, read-out: cellular IC50
Source text: as §1

[8] = system: IMS-M2; experiment: CellTiter Blue cell viability assay; format: cell-based, human; conditions: IMS-M2, 48 h, read-out: cellular IC50
Source text: as §1

[9] = system: MOLM-13; experiment: CellTiter Blue cell viability assay; format: cell-based, human; conditions: MOLM-13, 48 h, read-out: cellular IC50
Source text: as §1

[10] = 10 μM compound, read-out: %inh (percentage of inhibition of AKT1 activity)

NC(=O)c1c(NC(=O)c2ccc(F)cc2F)sc2c1CCCCC2 [T187, 2-(2,4-Difluorobenzamido)-5,6,7,8-tetrahydro-4H-cyclohepta[b]thiophene-3-carboxamide]
IC50 [3]: 11.4 ± 2.8 µM | inhibition at 10 µM [3, 10]: 56% | inhibition at 50 µM ([3]; 50 μM compound solution (footnote b of Table S2), read-out: %inh (percentage of inhibition of AKT1 activity)): 56% | Ligand efficiency (LE = 1.4 pIC50/N) [3]: 0.28 kcal mol^−1 N^−1 | Ki [3]: 4.19 ± 1.36 µM | activity against p38 MAPK [4]: inactive

NC(=O)c1c(NC(=O)c2ccc(O)c(O)c2)sc2c1CCCCC2 [T159]
IC50 [3]: 2.12 ± 0.26 µM | inhibition at 10 µM [3, 10]: 94% | Ki [3]: 1.91 µM | IC50 ([5]; Homo sapiens, OCI-AML-3): > 30 µM | IC50 ([6]; Homo sapiens): > 30 µM | IC50 ([7]; Homo sapiens): > 30 µM | IC50 ([8]; Homo sapiens): > 30 µM | IC50 ([9]; Homo sapiens): > 30 µM

O=c1[nH]c(-c2ccc(O)c(O)c2)nc2sc3c(c12)CCC3 [T128]
IC50 [3]: 26.6 ± 4.8 µM | potency against AKT1 (in words) [3]: moderately active | inhibition at 10 µM [3, 10]: 78% | Ligand efficiency (LE = 1.4 pIC50/N) [3]: 0.30 kcal mol^−1 N^−1

Cc1cc(-c2ccccc2)nc2nc(NC(=O)c3ccc(O)c(O)c3)nn12 [T101]
IC50 [3]: 1.62 ± 0.15 µM | inhibition at 10 µM [3, 10]: 95% | Ligand efficiency (LE = 1.4 pIC50/N) [3]: 0.29 kcal mol^−1 N^−1 | Ki [3]: 0.24 µM | IC50 ([5]; Homo sapiens, OCI-AML-3): > 30 µM | IC50 ([6]; Homo sapiens): > 30 µM | IC50 ([7]; Homo sapiens): > 30 µM | IC50 ([8]; Homo sapiens): > 30 µM | IC50 ([9]; Homo sapiens): > 30 µM

O=c1[nH]c(-c2ccc(O)c(O)c2)nc2sc3c(c12)CCCCC3 [T124]
IC50 [3]: 30.9 µM | potency against AKT1 (in words) [3]: moderately active | %inh (percentage of inhibition of AKT1 activity) ([3]; 10 μM compound, 10 µM): 60% | inhibition at 10 µM [3, 10]: > 60% | Ligand efficiency (LE = 1.4 pIC50/N) [3]: 0.27 kcal mol^−1 N^−1

Cc1ccc2nc(CN(CCN(Cc3nc4ccc(C)cc4[nH]3)Cc3nc4ccc(C)cc4[nH]3)Cc3nc4ccc(C)cc4[nH]3)[nH]c2c1 [NSC348884, reference compound]
IC50 [5]: 6.6 µM | IC50 [6]: 2.1 µM | IC50 [7]: 5.6 µM | IC50 [8]: 7.6 µM | IC50 [9]: 3.4 µM
